Data as given in US10662187B2, “Bruton's tyrosine kinase inhibitors” (Zibo Biopolar Changsheng Pharmaceutical Co. Ltd., priority 2016, dated 2020).

Legend:
Ramos cells = experiment: Calcium flux assay, anti-IgM stimulated Ramos cells; assay type: cell-based; settings: Ramos cells stimulated with goat anti-human IgM antibody 10 μg/ml; read-out: Ramos Ca Flux
Experimental: Calcium FluxAssay Calcium flux fluorescence-based assays were performed in […] (Hamamatsu Photonics) fluorometric imaging plate reader according to manufacturer instructions. […] Then 12.5 […] 2× dye loading solution (Fluo-4 NW Calcium Assay Kits, Invitrogen) was added per well of a 384-well plate. Afterwards, actively growing Ramos cells (ATCC) in RPM1640 medium supplemented with 10% FBS (Invitrogen) were washed and re-plated in assay buffer (from Fluo-4 NW Calcium Assay Kits, Invitrogen) to approximately 6.4×10^6/ml (80000 cells/12.5 μL in 384-well plates). The plates were incubated at 37° C. for 30 minutes, then at room temperature for an additional 30 minutes. The plates were now ready to be used in an experiment. Immediately after the transfer and a 10-s recording of baseline fluorescence, the compound treated cells were stimulated with a goat anti-human IgM antibody (10 μg/ml; Jackson Immuno Research) and read in a FDSS for 240 seconds. Difference between the signal and that at baseline, designated adjusted relative fluorescence unit, was calculated by using a custom Excel (Microsoft, Redmond, Wash.) template to determine IgM-induced calcium influx and its inhibition by compounds. The table belows show the result.

BTK [1] = target: T1, BTK (Homo sapiens (Human), UniProt Q06187); experiment: Btk kinase assay (HTRF); assay type: biochemical; settings: [ATP]=80 μM, BTK=3.4 nM; read-out: BTK Inhibition
Procedure, shortened: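 HTRF read-out with enzyme, inhibitor, ATP and 1 μM peptide substrate in 50 mM Hepes pH 7.0, 0.02% NaN3, 0.01% BSA, 0.1 mM orthovanadate. Activity measured across compound concentrations against no-inhibitor controls, with no-enzyme wells as baseline.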

BTK [2] = target: T1, BTK; experiment: Btk occupancy in cellular assays (PCI-33380 labeling, Jeko-1 cells); assay type: cell-based; settings: 1.5 h pre-incubation with compound, PCI-33380 5 μM 1 h
Experimental: Btk Occupancy in Cellular Assays
For PCI-33380 labeling of human B cells, 10^6 Jeko-1 cells were pre-incubated with compound for 1.5 h before labeling. Then cells were treated with PCI-33380 at 5 μM for 1 h. Washed, lysed in Ripa buffer containing sample reducing agent, and analyzed by SDS/PAGE and fluorescent gel scanning using a Typhoon scanner 9500 (GE Healthcare) (Ex, 532 nm; Em, 555 nm). The gel was then blotted and total Btk levels detected by standard Western blot with Btk antibody (CST).

For `C=CC(=O)N1CC[C@@H](n2nc(-c3ccc(Oc4cccc(OC)c4)cc3)c3cnccc32)C1` [Compound 64, (R)-1-(3-(3-(4-(3-methoxyphenoxy)phenyl)-1H-pyrazolo[4,3-c]pyridin-1-yl)pyrrolidin-1-yl)prop-2-en-1-one], the IC50 (Ramos cells) was 10 to 100 nM and the IC50 (BTK [1]) was less than 10 nM.
Molecule `C=CC(=O)N1CC[C@@H](n2nc(-c3ccc(Oc4cccc(F)c4F)cc3)c3cnccc32)C1` [Compound 18, (R)-1-(3-(3-(4-(2,3-difluorophenoxy)phenyl)-1H-pyrazolo[4,3-c]pyridin-1-yl)pyrrolidin-1-yl)prop-2-en-1-one] has an IC50 (Ramos cells) of 10 to 100 nM and an IC50 (BTK [1]) of less than 10 nM.
`C=CC(=O)N1CCC[C@@H](n2nc(-c3ccc(Oc4cccc(OC)c4F)cc3)c3cncc(OC4CCOC4)c32)C1` (stereo partly drawn) [Compound 99, 1-((3R)-3-(3-(4-(2-fluoro-3-methoxyphenoxy)phenyl)-7-((tctrahydrofuran-3-yl)oxy)-1H-pyrazolo[4,3-c]pyridin-1-yl)piperidin-1-yl)prop-2-en-1-one] was tested, and the “concentration sufficient to fully occupy the active site of Btk” value (from here on “concentration sufficient”) (BTK [2]) was 100 nM and the IC50 (BTK [1]) was less than 10 nM.
In the case of `C=CC(=O)N1CC[C@@H](n2nc(-c3ccc(Oc4cccc(OC)c4F)cc3)c3cncc(OC)c32)C1` [Compound 79, (R)-1-(3-(3-(4-(2-fluoro-3-methoxyphenoxy)phenyl)-7-methoxy-1H-pyrazolo[4,3-c]pyridin-1-yl)pyrrolidin-1-yl)prop-2-en-1-one], the “concentration sufficient” value (BTK [2]) is reported as 50 nM and the IC50 (BTK [1]) is reported as less than 10 nM.
In the case of `C=CC(=O)N1CC[C@@H](n2nc(-c3ccc(Oc4cccc(OC)c4Cl)cc3)c3cncc(OC)c32)C1` [Compound 69, (R)-1-(3-(3-(4-(2-chloro-3-methoxyphenoxy)phenyl)-7-methoxy-1H-pyrazolo[4,3-c]pyridin-1-yl)pyrrolidin-1-yl)prop-2-en-1-one], the “concentration sufficient” value (BTK [2]) is reported as 100 nM and the IC50 (BTK [1]) is reported as less than 10 nM.
For `C=CC(=O)N1CCC[C@@H](n2nc(-c3ccc(Oc4cccc(OC)c4F)cc3)c3c(C)nccc32)C1` [Compound 78, (R)-1-(3-(3-(4-(2-fluoro-3-methoxyphenoxy)phenyl)-4-methyl-1H-pyrazolo[4,3-c]pyridin-1-yl)piperidin-1-yl)prop-2-en-1-one], the “concentration sufficient” value (BTK [2]) was 50 nM and the IC50 (BTK [1]) was less than 10 nM.
Molecule `C=CC(=O)N1CC[C@@H](n2nc(-c3ccc(Oc4ccccc4)c(Cl)c3)c3cnccc32)C1` [Compound 11, (R)-1-(3-(3-(3-chloro-4-phenoxyphenyl)-1H-pyrazolo[4,3-c]pyridin-1-yl)pyrrolidin-1-yl)prop-2-en-1-one] has an IC50 (Ramos cells) of 100 to 1000 nM and an IC50 (BTK [1]) of less than 10 nM.
For `C=CC(=O)N1CCC[C@@H](n2nc(-c3ccc(Oc4cccc(OC)c4F)cc3)c3cncc(OCCO)c32)C1` [Compound 98, (R)-1-(3-(3-(4-(2-fluoro-3-methoxyphenoxy)phenyl)-7-(2-hydroxyethoxy) 1H-pyrazolo[4,3-c]pyridin-1-yl)piperidin-1-yl)prop-2-en-1-one], the “concentration sufficient” value (BTK [2]) was 100 nM and the IC50 (BTK [1]) was less than 10 nM.
Work on `C=CC(=O)N1CC[C@@H](n2nc(-c3ccc(Oc4cccc(OC)c4F)cc3)c3cncc(C)c32)C1` [Compound 5, (R)-1-(3-(3-(4-(2-fluoro-3-methoxyphenoxy)phenyl)-7-methyl-1H-pyrazolo [4,3-c]pyridin-1-yl)pyrrolidin-1-yl) prop-2-en-1-one] yielded an IC50 (BTK [1]) of less than 10 nM.
Molecule `C=CC(=O)N1CCC[C@@H](n2nc(-c3ccc(Oc4cccc(Cl)c4)cc3)c3cnccc32)C1` [Compound 9, (R)-1-(3-(3-(4-(3-chlorophenoxy)phenyl)-1H-pyrazolo[4,3-c]pyridin-1-yl)piperidin-1-yl)prop-2-en-1-one] has an IC50 (BTK [1]) of 10 to 100 nM.
For `C=CC(=O)N1CCCC(Cn2nc(-c3ccc(Oc4ccccc4)cc3)c3cnccc32)C1` (centres unmarked) [Compound 53, 1-(3-((3-(4-phenoxyphenyl)-1H-pyrazolo[4,3-c]pyridin-1-yl)methyl)piperidin-1-yl)prop-2-en-1-one], the IC50 (BTK [1]) was 10 to 100 nM.
`C=CC(=O)N1CC[C@@H](n2nc(-c3ccc(Oc4cccc(OC)c4F)cc3)c3cncc(OCC)c32)C1` [Compound 80, (R)-1-(3-(7-cthoxy-3-(4-(2-fluoro-3-methoxyphenoxy)phenyl)-1H-pyrazolo[4,3-c]pyridin-1-yl)pyrrolidin-1-yl)prop-2-en-1-one] was tested, and the “concentration sufficient” value (BTK [2]) was 50 nM and the IC50 (BTK [1]) was less than 10 nM.
Molecule `C=CC(=O)N1CC[C@@H](n2nc(-c3ccc(Oc4cccc(C)c4)cc3)c3cnccc32)C1` [Compound 10, (R)-1-(3-(3-(4-(m-tolyloxy)phenyl)-1H-pyrazolo[4,3-c]pyridin-1-yl)pyrrolidin-1-yl)prop-2-en-1-one] has an IC50 (BTK [1]) of 10 to 100 nM.
`CCC(=O)N1CCC[C@@H](n2nc(-c3ccc(Oc4cccc(OC)c4F)cc3)c3cncc(OC)c32)C1` [Compound 89, (R)-1-(3-(3-(4-(2-fluoro-3-methoxyphenoxy)phenyl)-7-methoxy-1H-pyrazolo[4,3-c]pyridin-1-yl)piperidin-1-yl)propan-1-one] was tested, and the IC50 (BTK [1]) was 100 to 1000 nM.
With `C=CC(=O)N1CC[C@@H](n2nc3ccncc3c2-c2ccc(-c3cccc(C)c3)cc2)C1` [Compound 108, (R)-1-(3-(3-(3′-methyl-[1,1′-biphenyl]-4-yl)-2H-pyrazolo[4,3-c]pyridin-2-yl)pyrrolidin-1-yl)prop-2-en-1-one] the IC50 (BTK [1]) was 100 to 1000 nM.
For `C=CC(=O)N1CCC[C@@H](n2nc(-c3ccc(Oc4cccc(OC)c4F)cc3)c3cncc(OCCC)c32)C1` [Compound 77, (R)-1-(3-(3-(4-(2-fluoro-3-methoxyphenoxy)phenyl)-7-propoxy-1H-pyrazolo[4,3-c]pyridin-1-yl)piperidin-1-yl)prop-2-en-1-one], the “concentration sufficient” value (BTK [2]) was 25 nM and the IC50 (BTK [1]) was less than 10 nM.
With `C=CC(=O)N1CC[C@@H](n2nc(-c3ccc(Oc4cccc(Cl)c4C)cc3)c3cnccc32)C1` [Compound 60, (R)-1-(3-(3-(4-(3-chloro-2-methylphenoxy)phenyl)-1H-pyrazolo[4,3-c]pyridin-1-yl)pyrrolidin-1-yl)prop-2-en-1-one] the IC50 (BTK [1]) was 10 to 100 nM.
For `C=CC(=O)N1CC[C@@H](n2nc(-c3ccc(Oc4cccc(F)c4OC)cc3)c3cnccc32)C1` [Compound 49, (R)-1-(3-(3-(4-(3-fluoro-2-methoxyphenoxy)phenyl)-1H-pyrazolo[4,3-c]pyridin-1-yl)pyrrolidin-1-yl)prop-2-en-1-one], the IC50 (BTK [1]) was 10 to 100 nM.
`C=CC(=O)N1CC(n2nc(-c3ccc(Oc4ccccc4)cc3)c3cnccc32)C1` [Compound 52, 1-(3-(3-(4-phenoxyphenyl)-1H-pyrazolo[4,3-c]pyridin-1-yl)azetidin-1-yl)prop-2-en-1-one] showed an IC50 (BTK [1]) of 10 to 100 nM.
`C=CC(=O)N1CCC[C@@H](n2nc(-c3ccc(Oc4cccc(OC)c4OCCC)cc3)c3cncc(OCCC)c32)C1` [Compound 88, (R)-1-(3-(3-(4-(3-methoxy-2-propoxyphenoxy)phenyl)-7-propoxy-1H-pyrazolo[4,3-c]pyridin-1-yl)piperidin-1-yl)prop-2-en-1-one] was tested, and the IC50 (BTK [1]) was 10 to 100 nM.
For `C=CC(=O)N1CCC[C@@H](n2nc(-c3ccc(Oc4cccc(C)c4C)cc3)c3cnccc32)C1` [Compound 24, (R)-1-(3-(3-(4-(2,3-dimethylphenoxy)phenyl)-1H-pyrazolo[4,3-c]pyridin-1-yl)piperidin-1-yl)prop-2-en-1-one], the IC50 (BTK [1]) was less than 10 nM.
Molecule `C=CC(=O)N1CCc2c(c(-c3ccc(Oc4cccc(OC)c4F)cc3)nn2[C@@H]2CCN(C(=O)C=C)C2)C1` [Compound 46, (R)-1-(3-(5-acryloyl-3-(4-(2-fluoro-3-methoxyphenoxy)phenyl)-4,5,6,7-tetrahydro-1H-pyrazolo[4,3-c]pyridin-1-yl)pyrrolidin-1-yl)prop-2-en-1-one] has an IC50 (BTK [1]) greater than 10000 nM.
Work on `C=CC(=O)N1CCC[C@@H](n2nc(-c3ccc(Oc4cccc(OC)c4)cc3)c3cnccc32)C1` [Compound 65, (R)-1-(3-(3-(4-(3-methoxyphenoxy)phenyl)-1H-pyrazolo[4,3-c]pyridin-1-yl)piperidin-1-yl)prop-2-en-1-one] yielded an IC50 (BTK [1]) of 10 to 100 nM.
For `C=CC(=O)N1CCC[C@@H](n2nc(-c3ccc(Oc4cccc(OC)c4F)cc3)c3cncc(OCCN(C)C)c32)C1` [Compound 93, (R)-1-(3-(7-(2-(dimethylamino)ethoxy)-3-(4-(2-fluoro-3-methoxyphenoxy)phenyl)-1H-pyrazolo[4,3-c]pyridin-1-yl)piperidin-1-yl)prop-2-en-1-one], the IC50 (BTK [1]) was less than 10 nM.
`COc1cccc(Oc2ccc(-c3nn([C@@H]4CCCN(C(=O)C(N)=O)C4)c4c(OC)cncc34)cc2)c1F` [Compound 120, (R)-2-(3-(3-(4-(2-fluoro-3-methoxyphenoxy)phenyl)-7-methoxy-1H-pyrazolo[4,3-c]pyridin-1-yl)piperidin-1-yl)-2-oxoacetamide] gave an IC50 (BTK [1]) of 10 to 100 nM.
